Assay results published in ChEMBL document CHEMBL3507680, “University of Dundee, Gates Library screen for HepG2 cell viability”.

test: Human HepG2 cell viability assay in 384 well format; type: toxicity, cell-based; parameters: dose 125 nL, time 70.5 hour; cytotoxicity at 70.5 h: concentration not given beside the values; details: HepG2 cells, read-out: Inhibition

| Structure (SMILES) | cytotoxicity at 70.5 h |
| --- | --- |
| CCN(CC(=O)NC)C(=O)Cc1nc(-c2ccco2)oc1C | -7.15% |
| CN(CCc1ccccc1)Cc1nc(Cc2cccc(F)c2)no1 | 0.246% |
| COCCN1CC[C@]2(CN(Cc3ccccn3)C[C@H]2C)C1=O | 1.87% |
| CC(C)c1cc(NCC2(CO)CCC2)ncn1 | 17.4% |
| O=C(CCC1CCN(C(=O)c2cc[nH]c2)CC1)NCc1cccc(Cl)c1 | -9.67% |
| COc1ccc(Nc2ccc(C#N)cn2)cc1N1CCCC1=O | 5.76% |
| Cc1ccc(-c2nc(CN3CCCC3Cn3cncn3)cs2)o1 (centres undefined) | -2.7% |
| COc1cc(N(C)Cc2noc(CC(C)C)n2)ncn1 | 20.1% |
| Cn1cncc1-c1nnc([C@H]2CCN(Cc3cccnc3)C2)o1 | -2.71% |
| CNc1nc(C2CCCN(C(=O)C(C)(C)OC)C2)nc2c1CN(C)CC2 (centres undefined) | -13.7% |
| COc1cccc(-c2noc3c2CN(c2ncnc4c2CCC4)CC3)c1 | -6.28% |
| CCn1cncc1Cn1ncc2ccccc2c1=O | -7.38% |
| CC(C)c1noc(CS(=O)(=O)CC(=O)NCCOc2ccccc2)n1 | -13.7% |
| CN(C)CCN(Cc1ccccn1)C(=O)Nc1cccc(F)c1 | -9.47% |
| CNS(=O)(=O)c1ccccc1N1CCN(C(=O)NC(C)C)CC1 | -5.21% |
| CCc1ncc2c(n1)CN(CCCc1nc3ccccc3o1)CC2 | 0.768% |
| COC(=O)c1ccoc1COC(=O)CCc1ccc(OC)c(OC)c1 | -15.4% |
| CCOCC1CN(C(=O)c2cnoc2C)Cc2cn(CC3CC3)nc21 (centres undefined) | -8.9% |
| CN1CCOC(CNC(=O)CCCOc2cccc(F)c2)C1 (centres undefined) | 0.774% |
| O=C(NCCn1ccnc1-c1cc2n(n1)CCNC2)c1ccc(F)cc1 | 2.16% |
| CCC(C)NC(=O)c1ccc(NC(=O)CCCn2cncn2)c(C)c1 (centres undefined) | 14.8% |
| COCCN1CCN(Cc2nnc(-c3occc3C)o2)CC1 | -6.39% |
| O=S(=O)(C1CC1)N1CCO[C@@H]2CC(COCc3cccnc3)C[C@H]21 (some centres undefined) | -2.81% |

| Structure (SMILES) | cytotoxicity at 70.5 h |
| --- | --- |
| CCCOC(=O)N1CCCC2(CCN(Cc3cccc(C#N)c3)C2)C1 (centres undefined) | -6.05% |
| Cc1cc(O)cc2c(=O)oc(CC(C)O)cc12 (centres undefined) | -6.88% |
| COc1cccc(-c2cc(C3CCCNC3)ccn2)c1 (centres undefined) | 3.19% |
| CCOc1ncccc1C(=O)N1CCCC(c2nccn2CCOC)C1 (centres undefined) | -9.63% |
| CN(C)c1ncc2c(n1)N(C)CCN(CC1CC1)C2=O | -2.69% |
| Cc1cc(C)c(C(=O)N2CCCC(O)(CN3CCCC3)C2)cc1C (centres undefined) | -4.19% |
| COc1cc2cc3c(nc2cc1OC)OCCN(Cc1ccco1)C3 | 8.51% |
| O=C(COCc1nc(-c2ccncc2)no1)N1CCCC1 | -4.88% |
| Cn1ccnc1CN1CCN(CC(O)c2ccc(F)c(F)c2)CC1 (centres undefined) | 13.5% |
| CCNC(=O)N1C[C@@H]2OCC(=O)N(Cc3cccnc3)[C@@H]2C1 | -1.41% |
| Cc1cc(=O)n2nc(Oc3cccc(C(N)=O)c3)sc2n1 | -25% |
| COc1ccc(CNC(=O)CNc2ccccc2OC)cc1 | 2.91% |
| Cc1cc(CN2C[C@H]3CC[C@@H]2CN(Cc2[nH]cnc2C)C3)on1 | -6.39% |
| CCc1nc(C2CCCN(C(=O)NCCOC)C2)no1 (centres undefined) | 21.2% |
| Oc1cc(CCC2CCCCN2)cc(-c2ccncc2)c1 (centres undefined) | 17.4% |
| Cc1cc(CNC(=O)Nc2cc(F)cc(N3CCCC3)c2)no1 | -13.7% |
| Cn1cc(-c2ncnc3c2CCN(CC2CCOC2)CC3)cn1 (centres undefined) | -7.49% |
| CCCn1nc2c(cc1=O)CN(Cc1nc(-c3ccco3)no1)CC2 | -1.15% |
| COc1c(C2CCCN2C(=O)c2cnc[nH]2)c(C)nn1C (centres undefined) | -2.57% |
| CCN1CCN(C(=O)c2cc(C(F)(F)F)n[nH]2)[C@H]2CS(=O)(=O)C[C@H]21 | -18.6% |
| CC(O)(CNS(=O)(=O)Cc1ccon1)c1ccsc1 (centres undefined) | 0.988% |
| CCS(=O)(=O)N1CCC2(CCCC(=O)N2C)CC1 | -11% |
| O=S(=O)(Cc1ccccc1F)NC(CO)c1ccco1 (centres undefined) | 18.8% |

| Structure (SMILES) | cytotoxicity at 70.5 h |
| --- | --- |
| O=S(=O)(Cc1ccccc1)NCC1CCN(c2cnccn2)CC1 | 4.32% |
| O=C(O)C(c1ccc2[nH]ccc2c1)N1CCN(c2cnccn2)CC1 (centres undefined) | -3.87% |
| COc1cccc2c1OCC(CNC(=O)Cc1cnccn1)C2 (centres undefined) | -3.59% |
| N#CCCCS(=O)(=O)NC(=O)c1cccc(Cl)c1F | -2.7% |
| Cc1n[nH]c(C)c1NC(=O)CN1CCn2c(nnc2C(C)C)C1 | -7.95% |
| CC(C)c1ccc(OCCC(=O)N(C)C)cc1 | 12.7% |
| FC(F)(F)Cc1noc(CN2CCCC2c2noc(C3CC3)n2)n1 (centres undefined) | -8.5% |
| O=C(c1ccc(S(=O)(=O)NCCc2ccccn2)cc1)N1CCCC1 | -14.8% |
| Cc1cc(F)ccc1N1CCCC(NC(=O)CCc2ccncc2)C1 (centres undefined) | -23.5% |
| CNC(=O)c1cnc(/C=C/c2cc(OC)c(O)c(OC)c2)s1 | -12.6% |
| Cc1nnc(N2CCCC3(CN(Cc4cccnc4)CCO3)C2)o1 (centres undefined) | -4.29% |
| Cc1oncc1C(=O)N1CC[C@H]2[C@@H]1CCC(=O)N2CC1CC1 | 2.95% |
| COc1c(C)cnc(CNC(=O)CCOCc2ccccc2)c1C | -3.15% |
| O=C(CCC1CCCN(C(=O)CCc2ccc(F)c(F)c2)C1)NC1CC1 (centres undefined) | -8.38% |
| CC(C)CN1C(=O)CO[C@@H]2CN(C(=O)C3CCOCC3)C[C@H]21 | -4.41% |
| CC(COc1ccccc1F)NC(=O)N[C@@H]1C=C[C@H](CO)C1 (some centres undefined) | -7.04% |
| Cc1csc(C2CCCN(C(=O)c3cc(Cl)c[nH]3)C2)n1 (centres undefined) | -0.903% |
| Cc1ccc(CN2CCc3ncnc(C4CCOC4)c3CC2)s1 (centres undefined) | 2.16% |
| COc1cccc(-c2n[nH]cc2CNC2CCCN(C)C2)c1 (centres undefined) | -5.83% |
| COCCn1ccc2c(NC(=O)C(C)C)cccc21 | -1.52% |
| O=C(Cc1cccc(F)c1)NCCNCC1CNc2ccnn2C1 (centres undefined) | 15.5% |
| CC(=O)N1CC2(CCCC2)c2ccccc21 | -3.2% |
| CC(C)C[C@@H](CO)n1cc(-c2cnc(-c3ccco3)nc2)nn1 | -6.45% |

| Structure (SMILES) | cytotoxicity at 70.5 h |
| --- | --- |
| COc1ccc(C(NC(=O)NCc2nnc3n2CCC3)C2CC2)cc1 (centres undefined) | 14.3% |
| CCNC(=O)NC1CN(CC(=O)NCc2ccccc2C)C[C@@H]1OC (some centres undefined) | 1.44% |
| CC(C)c1noc(CN(Cc2cccs2)C2CC2)n1 | 6.94% |
| O=C(NCC(F)(F)F)C1CSCN1S(=O)(=O)c1ccc(F)cc1 (centres undefined) | -4.65% |
| c1cnc(Nc2cncc(C3CCCN3)n2)cn1 (centres undefined) | -3.08% |
| O=S1(=O)c2ccccc2OCC2(CCN(CCO)CC2)CN1CC1CC1 | -0.378% |
| COC(=O)C(C)(C)NC(=O)c1cnc(Cc2ccc(F)cc2)s1 | -2.02% |
| Oc1cccc2ccc(CN3CCC4(CCNCC4)C3)nc12 | -4.99% |
| CCN(CC)c1nc2sc(C(=O)N3CCNC(=O)C3)cc2s1 | -8.64% |
| c1cnc(N2CCOCC3(CCCN(c4nncs4)C3)C2)cn1 (centres undefined) | -3.82% |
| Cc1nc(CC2CCN(C(=O)C(c3ccccc3C)N(C)C)CC2)no1 (centres undefined) | -13.1% |
| CCc1nc(CC(=O)N2CCOCC2c2ncon2)cs1 (centres undefined) | -3.4% |
| COC1(CNC(=O)NCCc2ccccc2)CCSC1 (centres undefined) | 15.9% |
| O=C1C(N2CCOC3(CCCC3)C2)CCN1C1CC1 (centres undefined) | -1.76% |
| O=C(NC1CCN(c2ccc(-c3ccccc3F)nn2)C1)C1CCC1 (centres undefined) | 1.72% |
| Cc1nn(C)c(C)c1CC(=O)N1CCCC(n2ccnc2C)C1 (centres undefined) | -2.12% |
| c1cc(COC[C@@]23CCC[C@@H]2CN(C2CCOCC2)C3)ccn1 | -2.91% |
| CCNC(=O)NCc1cnn(-c2ccc(F)cc2F)c1 | -10.2% |
| CSC(CNS(N)(=O)=O)c1cccc(Cl)c1 (centres undefined) | -1.44% |
| COc1cc(N2CCc3ncnc(-c4cnn(C)c4)c3CC2)ncn1 | -12% |
| CCC(C(=O)Nc1ccc2c(C)n[nH]c2c1)N1CCCC1=O (centres undefined) | 21.5% |
| CNC(=O)Cn1ccc2ccc(NC(=O)C(C)C)cc21 | -16.4% |
| CC(=O)NC[C@@H]1C=C(C)[C@H](CC(=O)NCCN(C)C)C[C@H]1C(C)C | 23.8% |

| Structure (SMILES) | cytotoxicity at 70.5 h |
| --- | --- |
| CC(C)N1Cc2c(C(=O)N3CCOCC3)nn(C)c2C1 | -13.7% |
| Cc1ccc(-c2nc(CN3CCCC(Cn4cncn4)C3)cs2)o1 (centres undefined) | 6.82% |
| Cc1ccc(C(=O)NS(=O)(=O)c2ccccc2F)c(=O)[nH]1 | -1.46% |
| COCCNC(=O)[C@@]12CCO[C@@H]1CCN(Cc1ccc(OC)cc1)C2 | -5.1% |
| O=C(c1ccc(Cn2ccccc2=O)o1)N1CCC2(CC1)OCCO2 | -2.65% |
| O=C(c1cc(C2CC2)on1)N1CCC(Oc2ncccc2Br)CC1 | -13.4% |
| CC(C)n1nc(CNc2ncccn2)c2c1CN(C)CC2 | -6% |
| CC(=O)Nc1nc(CN2CCCC2Cn2cccn2)cs1 (centres undefined) | -6.85% |
| N#Cc1ccnc(N2CCN(CC(O)c3ccc(F)c(F)c3)CC2)c1 (centres undefined) | -2.47% |
| Cc1cc(=O)n2nc(Oc3cc(Cl)cc(Cl)c3)sc2n1 | -19.3% |
| CN1C[C@H](O)[C@]2(CCN(Cc3ccc(OC(F)(F)F)cc3)C2)S1(=O)=O | -1.23% |
| CC(C(=O)N1CCC(Cc2ccc(F)cc2)CC1)n1ccnc1 (centres undefined) | 20.4% |
| Cc1csc(C2CCCN(C(=O)c3cnc[nH]3)C2)n1 (centres undefined) | -0.708% |
| N#Cc1cc(F)c(N2CCC(NS(=O)(=O)c3cccs3)CC2)c(F)c1 | -20% |
| CCn1c(CN(C)C)nnc1C1CCN(Cc2cnc(C)nc2)CC1 | -5.5% |
| Cc1n[nH]c(C)c1CC(=O)N1CCC2(CC1)CN(C)CCN2C | 23.4% |
| O=C(NCc1cncc2c1CCN(C1CCOCC1)C2)c1ccco1 | -2.15% |
| O=C(Nc1ccc2ncsc2c1)N1CCCN([C@H]2COC[C@@H]2O)CC1 | 0.731% |
| CN1CCn2c(-c3cnn(C)c3)cnc2C12CCN(CC1CC1)CC2 | -4.02% |
| c1cc(CN2CCN(Cc3cscn3)CC2)cs1 | -6.89% |
| CSc1ccccc1NC(=O)CCC(=O)N(C)C1CCN(C)CC1 | -0.551% |
| Cc1nc(CN2C(=O)CC[C@@H]3[C@H]2CCN3C2CCOCC2)cs1 | -2.88% |
